Data as given in patent publication US12371454B2, “Cyclic peptide compound having Kras inhibitory action” (priority 2019, dated 2025).
Starred links: 1 amine or outer side, 2 acyl side, 3 side chain; linkers in the order of their positions; H or OH if unused. Positions of bridges follow the written chain, without caps; N, C: chain ends. Non-standard residues stand in square brackets, D forms with d. Residues, ends and D or L forms follow the SMILES beside them. *: point of attachment. hPhe(3-Cl-4-CF3) = N[C@@H](CCc1ccc(C(F)(F)F)c(Cl)c1)C(=O)O; 3Oxa8azabicyclo(3.2.1)octane = C1CC2COCC1N2*; NMeAbu(4,4,4-F3) = CN[C@@H](CC(F)(F)F)C(=O)O; NMePhe(4-Me) = CN[C@@H](Cc1ccc(C)cc1)C(=O)O; NMeNle(6-CHF2) = CN[C@@H](CCCCC(F)F)C(=O)O; NMedβ3hAla = C[C@H](CC(=O)[*:2])N(C)[*:1]; Morpholine(3S-CO) = O=C(O)[C@@H]1COCCN1; dβ3hPip = O=C(C[C@H]1CCCCN1[*:1])[*:2]; NMeGly(cBu) = CN[C@H](C(=O)O)C1CCC1; NMeCha = CN[C@@H](CC1CCCCC1)C(=O)O; X2 = C=CC[C@](C)(N[*:1])C(=O)[*:2]; NMehLeu = CN[C@@H](CCC(C)C)C(=O)O; Ala(cPr) = N[C@@H](CC1CC1)C(=O)O; NMeChg = CN[C@H](C(=O)O)C1CCCCC1; NMeI = CC[C@H](C)[C@H](NC)C(=O)O; NMeT = CN[C@H](C(=O)O)[C@@H](C)O; NMeD = CN[C@@H](CC(=O)O)C(=O)O; NMeL = CN[C@@H](CC(C)C)C(=O)O; NMehSer = CN[C@@H](CCO)C(=O)O; NMeV = CN[C@H](C(=O)O)C(C)C; Trifluoroethyl = FC(F)(F)C*; d(β3hA) = C[C@@H](N)CC(=O)O; NMeS = CN[C@@H](CO)C(=O)O; NMeA = CN[C@@H](C)C(=O)O; Piperidide = C1CCN(*)CC1; Pyrrolidide = C1CCN(*)C1; Ac5c = NC1(C(=O)O)CCCC1; Ac4c = NC1(C(=O)O)CCC1; Cyclobutyl = C1CC(*)C1; Sar = CNCC(=O)O; Propyl = CCC*

Legend:
[1] = target: T1, Kras and SOS1 (biotin-tagged human Kras loaded with GDP, His-tagged human SOS1) (Homo sapiens, UniProt P01116, G12D); test: Protein-protein interaction inhibition between Kras and SOS1 (KrasGl2D-SOS PPI) using AlphaScreen; format: binding; conditions: AlphaScreen; biotin-tagged human Kras loaded with GDP, His-tagged human SOS1; read-out: KRAS G12D-SOS PPI IC50
T1 construct: made in house; host or cells: E. coli (stated for Kras only)
Method in brief: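 Read-out is acceptor-bead light at 520-620 nm, arising when 680 nm-irradiated nickel donor beads pass singlet oxygen to streptavidin acceptors. The bead pair links His-tagged SOS1 with biotin-tagged, GDP-bound Kras from E. coli.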

[2] = tested on: Human pancreatic cancer cell line AsPC-1; test: Measurement of AsPC-1 cell growth inhibition (AsPC-1 CGI); format: cell-based; conditions: 96 h
Method in brief: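 AsPC-1 cells in 15% FBS RPMI-1640 were exposed to test compound for 96 hours at 37° C, with CellTiter-Glo as endpoint.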

T1 sequence (P01116 1-188 isoform P01116-2 G12D): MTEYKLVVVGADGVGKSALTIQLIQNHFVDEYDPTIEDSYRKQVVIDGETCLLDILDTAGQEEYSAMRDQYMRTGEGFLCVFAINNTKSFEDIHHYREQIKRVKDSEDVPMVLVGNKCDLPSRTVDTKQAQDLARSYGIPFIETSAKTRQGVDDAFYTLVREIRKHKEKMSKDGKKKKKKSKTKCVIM

Structure (SMILES) | IC50 [1] [nM] | IC50 [2] [nM]
CC[C@H](C)[C@@H]1NC(=O)[C@H](CC(C)C)N(C)C(=O)C[C@@H](C(=O)N2CCCCC2)N(C)C(=O)[C@H](C2CCCCC2)N(C)C(=O)C2(CCCC2)NC(=O)[C@@H]2CCCN2C(=O)[C@H](CCc2ccc(C(F)(F)F)c(Cl)c2)NC(=O)CN(C)C(=O)[C@H](CCCCC(F)F)N(C)C(=O)CN(C)C(=O)CN(C)C1=O [Compound 631] ([NMeL]I[Sar][Sar][NMeNle(6-CHF2)][Sar][hPhe(3-Cl-4-CF3)]P[Ac5c][NMeChg][NMeD]-Piperidide; lactam N-11) | 1 | 100 to 500
C=CC[C@]1(C)NC(=O)[C@@H]2CCCN2C(=O)[C@H](CCc2ccc(C(F)(F)F)c(Cl)c2)NC(=O)CN(C)C(=O)[C@H](CC2CCCCC2)N(C)C(=O)CN(C)C(=O)CN(C)C(=O)[C@H]([C@@H](C)CC)NC(=O)[C@H](CC(C)C)N(C)C(=O)C[C@@H](C)N(C)C(=O)[C@H](C(C)C)N(C)C1=O [Compound 644] (cyclo(I[Sar][Sar][NMeCha][Sar][hPhe(3-Cl-4-CF3)]P[X2][NMeV][NMedβ3hAla][NMeL])) | 17 | 100 to 500
CC[C@H](C)[C@@H]1NC(=O)[C@H](CC(F)(F)F)N(C)C(=O)C[C@@H](C(=O)N2CCCC2)N(C)C(=O)[C@H](C2CCCCC2)N(C)C(=O)C2(CCCC2)NC(=O)[C@@H]2CCCN2C(=O)[C@H](CCc2ccc(C(F)(F)F)c(Cl)c2)NC(=O)CN(C)C(=O)[C@H](CC2CCCCC2)N(C)C(=O)CN(C)C(=O)CN(C)C1=O [Compound 647] ([NMeAbu(4,4,4-F3)]I[Sar][Sar][NMeCha][Sar][hPhe(3-Cl-4-CF3)]P[Ac5c][NMeChg][NMeD]-Pyrrolidide; lactam N-11) | 0.58 | 20 to 50
CC[C@H](C)[C@@H]1NC(=O)[C@H](CCOC)N(C)C(=O)C[C@@H](C(=O)N2CCCCC2)N(C)C(=O)[C@H](C2CCCCC2)N(C)C(=O)C2(CCCC2)NC(=O)[C@@H]2CCCN2C(=O)[C@H](CCc2ccc(C(F)(F)F)c(Cl)c2)NC(=O)CN(C)C(=O)[C@H](CC2CCCCC2)N(C)C(=O)CN(C)C(=O)CN(C)C1=O [Compound 650] ([NMehSer](Me)I[Sar][Sar][NMeCha][Sar][hPhe(3-Cl-4-CF3)]P[Ac5c][NMeChg][NMeD]-Piperidide; lactam N-11) | 0.6 | 50 to 100
CC[C@H](C)[C@@H]1NC(=O)[C@H](CC(C)C)N(C)C(=O)C[C@@H](C(=O)N2CCCCC2)N(C)C(=O)[C@H](C2CCCCC2)N(C)C(=O)C2(CCCC2)NC(=O)[C@@H]2COCCN2C(=O)[C@H](CCc2ccc(C(F)(F)F)c(Cl)c2)NC(=O)CN(C)C(=O)[C@H](CC2CCCCC2)N(C)C(=O)CN(C)C(=O)CN(C)C1=O [Compound 662] ([NMeL]I[Sar][Sar][NMeCha][Sar][hPhe(3-Cl-4-CF3)][Morpholine(3S-CO)][Ac5c][NMeChg][NMeD]-Piperidide; lactam N-11) | 3.2 | 50 to 100
CC[C@H](C)[C@@H]1NC(=O)[C@H](CC(F)(F)F)N(C)C(=O)C[C@@H](C(=O)N2C3CCC2COC3)N(C)C(=O)[C@H](C2CCCCC2)N(C)C(=O)C2(CCCC2)NC(=O)[C@@H]2CCCN2C(=O)[C@H](CCc2ccc(C(F)(F)F)c(Cl)c2)NC(=O)CN(C)C(=O)[C@H](Cc2ccc(C)cc2)N(C)C(=O)CN(C)C(=O)CN(C)C1=O [Compound 683] ([NMeAbu(4,4,4-F3)]I[Sar][Sar][NMePhe(4-Me)][Sar][hPhe(3-Cl-4-CF3)]P[Ac5c][NMeChg][NMeD]-{3Oxa8azabicyclo(3.2.1)octane}; lactam N-11) | 0.61 | 50 to 100
CC(C)C[C@H]1C(=O)N[C@@H](CC2CC2)C(=O)N(C)CC(=O)N(C)CC(=O)N(C)[C@@H](CC2CCCCC2)C(=O)N(C)CC(=O)N[C@@H](CCc2ccc(C(F)(F)F)c(Cl)c2)C(=O)N2CCC[C@H]2C(=O)NC2(CCCC2)C(=O)N(C)[C@@H](C2CCCCC2)C(=O)N(C)[C@H](C(=O)N2CCCCC2)CC(=O)N1C [Compound 689] ([NMeL][Ala(cPr)][Sar][Sar][NMeCha][Sar][hPhe(3-Cl-4-CF3)]P[Ac5c][NMeChg][NMeD]-Piperidide; lactam N-11) | 2.1 | 100 to 500
CC[C@H](C)[C@@H]1NC(=O)[C@H](COC2CCC2)N(C)C(=O)C[C@@H](C(=O)N2CCCCC2)N(C)C(=O)[C@H](C2CCCCC2)N(C)C(=O)C2(CCCC2)NC(=O)[C@@H]2CCCN2C(=O)[C@H](CCc2ccc(C(F)(F)F)c(Cl)c2)NC(=O)CN(C)C(=O)[C@H](CC2CCCCC2)N(C)C(=O)CN(C)C(=O)CN(C)C1=O [Compound 699] ([NMeS](Cyclobutyl)I[Sar][Sar][NMeCha][Sar][hPhe(3-Cl-4-CF3)]P[Ac5c][NMeChg][NMeD]-Piperidide; lactam N-11) | 0.83 | 50 to 100
CC[C@H](C)[C@@H]1NC(=O)[C@H](C2CCC2)N(C)C(=O)C[C@@H](C(=O)N2C3CCC2COC3)N(C)C(=O)[C@H](C2CCCCC2)N(C)C(=O)C2(CCCC2)NC(=O)[C@@H]2CCCN2C(=O)[C@H](CCc2ccc(C(F)(F)F)c(Cl)c2)NC(=O)CN(C)C(=O)[C@H](CC2CCCCC2)N(C)C(=O)CN(C)C(=O)CN(C)C1=O [Compound 701] ([NMeGly(cBu)]I[Sar][Sar][NMeCha][Sar][hPhe(3-Cl-4-CF3)]P[Ac5c][NMeChg][NMeD]-{3Oxa8azabicyclo(3.2.1)octane}; lactam N-11) | 0.69 | 50 to 100
CC[C@H](C)[C@@H]1NC(=O)[C@H](CC(C)C)N(C)C(=O)C[C@@H](C)NC(=O)[C@H]([C@@H](C)CC)N(C)C(=O)C2(CCCC2)NC(=O)[C@@H]2CCCN2C(=O)[C@H](CCc2ccc(C(F)(F)F)c(Cl)c2)NC(=O)CN(C)C(=O)[C@H](CC2CCCCC2)N(C)C(=O)CN(C)C(=O)CN(C)C1=O [Compound 708] (cyclo([Ac5c][NMeI][d(β3hA)][NMeL]I[Sar][Sar][NMeCha][Sar][hPhe(3-Cl-4-CF3)]P)) | 11 | 50 to 100
CC[C@H](C)[C@@H]1NC(=O)[C@H](CC(C)C)N(C)C(=O)C[C@@H](C(=O)N2CCCCC2)N(C)C(=O)[C@H](C(C)C)N(C)C(=O)C2(CCC2)NC(=O)[C@@H]2CCCN2C(=O)[C@H](CCc2ccc(C(F)(F)F)c(Cl)c2)NC(=O)CN(C)C(=O)[C@H](CC2CCCCC2)N(C)C(=O)CN(C)C(=O)CN(C)C1=O [Compound 712] ([NMeL]I[Sar][Sar][NMeCha][Sar][hPhe(3-Cl-4-CF3)]P[Ac4c][NMeV][NMeD]-Piperidide; lactam N-11) | 2.7 | 50 to 100
CC[C@H](C)[C@@H]1NC(=O)[C@H](C)N(C)C(=O)C[C@@H](C)N(C)C(=O)[C@H](C(C)C)N(C)C(=O)C2(CCCC2)NC(=O)[C@@H]2CCCN2C(=O)[C@H](CCc2ccc(C(F)(F)F)c(Cl)c2)NC(=O)CN(C)C(=O)[C@H](CC2CCCCC2)N(C)C(=O)CN(C)C(=O)CN(C)C1=O [Compound 714] (cyclo([Ac5c][NMeV][NMedβ3hAla][NMeA]I[Sar][Sar][NMeCha][Sar][hPhe(3-Cl-4-CF3)]P)) | 2.3 | 100 to 500
CC[C@H](C)[C@@H]1NC(=O)[C@H](CC(C)C)N(C)C(=O)C[C@@H](C(=O)N2CCCCC2)N(C)C(=O)[C@H](C2CCCCC2)N(C)C(=O)C2(CCCC2)NC(=O)[C@@H]2CCCN2C(=O)[C@H](CCc2ccc(C(F)(F)F)c(Cl)c2)NC(=O)CN(C)C(=O)[C@H](COCC(F)(F)F)N(C)C(=O)CN(C)C(=O)CN(C)C1=O [Compound 732] ([NMeL]I[Sar][Sar][NMeS](Trifluoroethyl)[Sar][hPhe(3-Cl-4-CF3)]P[Ac5c][NMeChg][NMeD]-Piperidide; lactam N-11) | 1.4 | 100 to 500
CCCOC[C@H]1C(=O)N(C)CC(=O)N[C@@H](CCc2ccc(C(F)(F)F)c(Cl)c2)C(=O)N2CCC[C@H]2C(=O)NC2(CCCC2)C(=O)N(C)[C@@H](C2CCCCC2)C(=O)N(C)[C@H](C(=O)N2CCCC2)CC(=O)N(C)[C@@H](CC(F)(F)F)C(=O)N[C@@H]([C@@H](C)CC)C(=O)N(C)CC(=O)N(C)CC(=O)N1C [Compound 735] ([NMeAbu(4,4,4-F3)]I[Sar][Sar][NMeS](Propyl)[Sar][hPhe(3-Cl-4-CF3)]P[Ac5c][NMeChg][NMeD]-Pyrrolidide; lactam N-11) | 0.44 | 50 to 100
CC[C@H](C)[C@@H]1NC(=O)[C@H](CC(C)C)N(C)C(=O)C[C@H]2CCCCN2C(=O)[C@H](C(C)C)N(C)C(=O)C2(CCCC2)NC(=O)[C@@H]2CCCN2C(=O)[C@H](CCc2ccc(C(F)(F)F)c(Cl)c2)NC(=O)CN(C)C(=O)[C@H](CC2CCCCC2)N(C)C(=O)CN(C)C(=O)CN(C)C1=O [Compound 747] (cyclo([Ac5c][NMeV][dβ3hPip][NMeL]I[Sar][Sar][NMeCha][Sar][hPhe(3-Cl-4-CF3)]P)) | 11 | 100 to 500
CC[C@H](C)[C@@H]1NC(=O)[C@H]([C@@H](C)O)N(C)C(=O)C[C@@H](C(=O)N2CCCCC2)N(C)C(=O)[C@H](C2CCCCC2)N(C)C(=O)C2(CCCC2)NC(=O)[C@@H]2CCCN2C(=O)[C@H](CCc2ccc(C(F)(F)F)c(Cl)c2)NC(=O)CN(C)C(=O)[C@H](CC2CCCCC2)N(C)C(=O)CN(C)C(=O)CN(C)C1=O [Compound 756] ([NMeT]I[Sar][Sar][NMeCha][Sar][hPhe(3-Cl-4-CF3)]P[Ac5c][NMeChg][NMeD]-Piperidide; lactam N-11) | 0.58 | 100 to 500
CC[C@H](C)[C@@H]1NC(=O)[C@H](CC(C)C)N(C)C(=O)C[C@@H](C(=O)N2CCCCC2)N(C)C(=O)[C@H](CCC(C)C)N(C)C(=O)C2(CCCC2)NC(=O)[C@@H]2CCCN2C(=O)[C@H](CCc2ccc(C(F)(F)F)c(Cl)c2)NC(=O)CN(C)C(=O)[C@H](CC2CCCCC2)N(C)C(=O)CN(C)C(=O)CN(C)C1=O [Compound 762] ([NMeL]I[Sar][Sar][NMeCha][Sar][hPhe(3-Cl-4-CF3)]P[Ac5c][NMehLeu][NMeD]-Piperidide; lactam N-11) | 5.5 | 100 to 500
